Measurements from publication PMC10041525, “New Dual Inhibitors of Bacterial Topoisomerases with Broad-Spectrum Antibacterial Activity and In Vivo Efficacy against Vancomycin-Intermediate Staphylococcus aureus” (Journal of Medicinal Chemistry, 2023).
Converted amounts (≈) assume the structure as drawn. Read-outs that look alike come from different tables or passages of the source.

Tested on: 100 A. baumannii strains (50 MDR, 50 non-MDR)
Assay: MIC broth microdilution at IHMA Europe, panel of 100 strains
Type: cell-based
Conditions: for MIC / MIC50 / MIC90: Acinetobacter baumannii; for MIC50: read-out: MIC 50; for MIC90: read-out: MIC 90

With `C[C@@H](O)[C@H]1C(=O)N2C(C(=O)O)=C(SCCNC=N)C[C@H]12` [Imipenem, imipenem] the MIC (A. baumannii IHMA 2099294, United Kingdom 2019, Non-MDR, read-out: MIC) was no more than 0.25 mg/L, the MIC (A. baumannii IHMA 2129256, Qatar 2019, Non-MDR, read-out: MIC) was no more than 0.25 mg/L and the MIC (A. baumannii IHMA 2154584, Israel 2020, MDR, read-out: MIC) was 16 mg/L (≈ 53.4 µM). For the same compound, the MIC (A. baumannii IHMA 2155340, Kenya 2020, MDR, read-out: MIC) was 16 mg/L (≈ 53.4 µM), the MIC (A. baumannii IHMA 2156634, Turkey 2020, MDR, read-out: MIC) was greater than 16 mg/L and the MIC (A. baumannii IHMA 2156709, Turkey 2020, MDR, read-out: MIC) was greater than 16 mg/L. It also gave an MIC (A. baumannii IHMA 2157614, Australia 2020, Non-MDR, read-out: MIC) of no more than 0.25 mg/L, an MIC (A. baumannii IHMA 2177232, Lithuania 2020, MDR, read-out: MIC) greater than 16 mg/L and an MIC (A. baumannii IHMA 2177489, Lithuania 2020, MDR, read-out: MIC) greater than 16 mg/L. It also gave an MIC (A. baumannii IHMA 2178574, Ukraine 2020, Non-MDR, read-out: MIC) of no more than 0.25 mg/L, an MIC (A. baumannii IHMA 2180134, Malaysia 2020, Non-MDR, read-out: MIC) of no more than 0.25 mg/L and an MIC (A. baumannii IHMA 2180142, Malaysia 2020, MDR, read-out: MIC) of 16 mg/L (≈ 53.4 µM). The MIC (A. baumannii IHMA 2181370, Morocco 2020, MDR, read-out: MIC) was greater than 16 mg/L, the MIC (A. baumannii IHMA 2183729, Argentina 2020, MDR, read-out: MIC) was 16 mg/L (≈ 53.4 µM) and the MIC (A. baumannii IHMA 2183849, Argentina 2020, Non-MDR, read-out: MIC) was no more than 0.25 mg/L. The MIC (A. baumannii IHMA 2184382, Japan 2020, Non-MDR, read-out: MIC) was no more than 0.25 mg/L, the MIC (A. baumannii IHMA 2193375, Venezuela 2020, MDR, read-out: MIC) was greater than 16 mg/L and the MIC (A. baumannii IHMA 2193485, Venezuela 2020, Non-MDR, read-out: MIC) was no more than 0.25 mg/L. For the same compound, the MIC (A. baumannii IHMA 2193607, Venezuela 2020, MDR, read-out: MIC) was greater than 16 mg/L, the MIC (A. baumannii IHMA 2195460, Italy 2020, MDR, read-out: MIC) was greater than 16 mg/L and the MIC (A. baumannii IHMA 2196914, South Africa 2020, MDR, read-out: MIC) was greater than 16 mg/L. It also gave an MIC (A. baumannii IHMA 2196959, South Africa 2020, MDR, read-out: MIC) greater than 16 mg/L, an MIC (A. baumannii IHMA 2203763, Spain 2020, MDR, read-out: MIC) greater than 16 mg/L and an MIC (A. baumannii IHMA 2205144, Korea, South 2020, MDR, read-out: MIC) greater than 16 mg/L. The MIC (A. baumannii IHMA 2206459, Taiwan 2020, MDR, read-out: MIC) was greater than 16 mg/L, the MIC (A. baumannii IHMA 2206507, Taiwan 2020, Non-MDR, read-out: MIC) was no more than 0.25 mg/L and the MIC (A. baumannii IHMA 2212575, Hungary 2020, Non-MDR, read-out: MIC) was no more than 0.25 mg/L. For the same compound, the MIC (A. baumannii IHMA 2215307, Hong Kong 2020, Non-MDR, read-out: MIC) was no more than 0.25 mg/L, the MIC (A. baumannii IHMA 2216586, Taiwan 2020, MDR, read-out: MIC) was greater than 16 mg/L and the MIC (A. baumannii IHMA 2223200, Colombia 2020, Non-MDR, read-out: MIC) was no more than 0.25 mg/L. It also gave an MIC (A. baumannii IHMA 2224017, Panama 2020, MDR, read-out: MIC) greater than 16 mg/L, an MIC (A. baumannii IHMA 2224303, Panama 2020, Non-MDR, read-out: MIC) of no more than 0.25 mg/L and an MIC (A. baumannii IHMA 2231797, Greece 2020, MDR, read-out: MIC) greater than 16 mg/L. The MIC (A. baumannii IHMA 2233099, Guatemala 2020, MDR, read-out: MIC) was greater than 16 mg/L, the MIC (A. baumannii IHMA 2233430, Kazakhstan 2020, MDR, read-out: MIC) was greater than 16 mg/L and the MIC (A. baumannii IHMA 2233548, Kazakhstan 2020, Non-MDR, read-out: MIC) was no more than 0.25 mg/L. The MIC (A. baumannii IHMA 2238964, Thailand 2020, MDR, read-out: MIC) was greater than 16 mg/L, the MIC (A. baumannii IHMA 2239052, Thailand 2020, Non-MDR, read-out: MIC) was no more than 0.25 mg/L and the MIC (A. baumannii IHMA 2261047, Belgium 2020, MDR, read-out: MIC) was greater than 16 mg/L. The MIC (A. baumannii IHMA 2261633, Canada 2020, Non-MDR, read-out: MIC) was no more than 0.25 mg/L, the MIC (A. baumannii IHMA 2274234, South Africa 2020, MDR, read-out: MIC) was greater than 16 mg/L and the MIC (A. baumannii IHMA 2274364, South Africa 2020, MDR, read-out: MIC) was greater than 16 mg/L. It also gave an MIC (A. baumannii IHMA 2275237, Chile 2020, Non-MDR, read-out: MIC) of no more than 0.25 mg/L, an MIC (A. baumannii IHMA 2275751, Jordan 2020, MDR, read-out: MIC) greater than 16 mg/L and an MIC (A. baumannii IHMA 2316205, United States 2020, MDR, read-out: MIC) greater than 16 mg/L. The MIC (MDR n = 50, read-out: MAX (maximum MIC; all strains inhibited)) was greater than 16 mg/L, the MIC50 (MDR n = 50) was greater than 16 mg/L and the MIC90 (MDR n = 50) was greater than 16 mg/L. It also gave an MIC (MDR n = 50, read-out: MIN (minimum MIC)) of 16 mg/L (≈ 53.4 µM), an MIC (all isolates n = 100, read-out: MAX (maximum MIC; all strains inhibited)) greater than 16 mg/L and an MIC50 (all isolates n = 100) of 0.5 mg/L (≈ 1.67 µM). For the same compound, the MIC90 (all isolates n = 100) was greater than 16 mg/L, the MIC (all isolates n = 100, read-out: MIN (minimum MIC)) was no more than 0.25 mg/L and the MIC (non-MDR n = 50, read-out: MAX (maximum MIC)) was 0.5 mg/L (≈ 1.67 µM). It also gave an MIC50 (non-MDR n = 50) of no more than 0.25 mg/L, an MIC90 (non-MDR n = 50) of no more than 0.25 mg/L and an MIC (non-MDR n = 50, read-out: MIN (minimum MIC)) of no more than 0.25 mg/L. For the same compound, the “Percentage I” value (MDR n = 50) was 0%, the “Percentage R” value (MDR n = 50) was 100% and the “Percentage S” value (MDR n = 50) was 0%. The “Percentage I” value (all n = 100, CLSI breakpoints) was 0%, the “Percentage R” value (all n = 100, CLSI breakpoints) was 50% and the “Percentage S” value (all n = 100, CLSI breakpoints) was 50%. For the same compound, the “Percentage I” value (non-MDR n = 50) was 0%, the “Percentage R” value (non-MDR n = 50) was 0% and the “Percentage S” value (non-MDR n = 50) was 100%.
